Test results reported in paper PMC4741889, “Ligand-based chemoinformatic discovery of a novel small molecule inhibitor targeting CDC25 dual specificity phosphatases and displaying in vitro efficacy against melanoma cells” (Oncotarget, 2015).

Key:
pAkt protein levels = assay: Western blotting of pAkt (Ser473) in SAN cells; format: cell-based, human; settings: 100 μM, 1 or 2 h
Description: The molecular mechanisms that regulate the cytotoxic potential of 7 in melanoma cells were further investigated through the evaluation of the activation state of protein kinase B (pAkt), one of the key proteins involved in the control and regulation of cell survival. To this aim, the protein levels of pAkt have been analyzed after 2- and 4-h incubation of A2058 cells with 7. […] It is known that Akt regulates the process of cell survival by phosphorylating different substrates, directly or indirectly involved in the apoptotic program. One of these targets is p53, a protein with a tumor-suppressor activity that regulates the cell cycle, as well as the expression of several genes involved in the apoptosis. […]
A2058 cells were seeded into 6-well-plates (3 × 10^5 cells/plate) for 24 h at 37°C and then treated at different times with 100 μM compound 7 or 0.5% DMSO. […] The protein concentration was determined by the method of Bradford, using bovine serum albumin (BSA) as standard. […] Membranes were then analysed by an enhanced chemiluminescence reaction, using Super Signal West Pico kit (Pierce) according to manufacturer's instruction; signals were visualized by autoradiography. […]
0.5% DMSO or 100 μM compound 7 for 1 or 2 h, were analyzed by Western blotting using an antibody raised against pAkt (Ser473). […]

CDC25C protein levels = assay: Western blotting of CDC25C protein levels in SAN cells; format: cell-based, human; settings: 100 μM, 1, 2 or 4 h
CDC25C = target: T1, CDC25C (Homo sapiens, UniProt P30307); assay: Ki from OMFP hydrolysis kinetics (Lineweaver-Burk), CDC25C; format: biochemical; settings: 40 nM CDC25C, 1–25 μM OMFP; mean ± S.E.; read-out: Ki CDC25C
T1 construct: Recombinant forms of the catalytic domains of CDC25A, -B and -C were obtained through the vectors pET28a-CDC25A-cd, pET28a-CDC25B-cd and pET28a-CDC25C-cd; made in house
T1 sequence (P30307 321-428 limits assumed): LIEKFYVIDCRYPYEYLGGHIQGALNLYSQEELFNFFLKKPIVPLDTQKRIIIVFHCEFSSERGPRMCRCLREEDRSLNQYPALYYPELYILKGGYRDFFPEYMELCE
Description: To measure the inhibition constant (Ki) of the recombinant forms of CDC25A, -B and -C towards the various inhibitors, the affinity of the different forms of CDC25 towards OMFP was measured either in the absence or in the presence of fixed concentrations of the various inhibitors. The reaction mixture contained 20 nM CDC25A, or 10 nM CDC25B, or 40 nM CDC25C, and different concentrations of the various inhibitors in 500 μL final volume of 20 mM Tris-HCl, pH 7.8, 1 mM DTT. DMSO was used as vehicle control. […] The corresponding Lineweaver-Burk plots allowed the calculation of the KM for OMFP and of the Vmax of OMFP hydrolysis, expressed as a.u./minmax. […] The Ki values were obtained from the decrease of a.u./minmax in the presence of the inhibitor, according to the equation a.u./mimmax’ = a.u./mimmax/{1 + ([I]/Ki)}, where a.u./mimmax’ represents the Vmax measured in the presence of the concentration [I] of the inhibitor. The Ki values were obtained from at least three independent experiments and reported as mean ± S.E.

CDC25A protein levels = assay: Western blotting of CDC25A protein levels in A2058 cells; format: cell-based, human; settings: A2058, 100 μM, 2-16 h
Description: To better investigate the effect of this inhibitor at the molecular level, we evaluated if the treatment of A2058 cells with 7 affected also the protein levels of the three CDC25 forms. […] On the other hand, the protein levels of CDC25B were unaffected by treatment of A2058 cells with 7 up to 16 h.
A2058 cells were seeded into 6-well-plates (3 × 10^5 cells/plate) for 24 h at 37°C and then treated at different times with 100 μM compound 7 or 0.5% DMSO. After treatment, cells were harvested, washed with PBS and then lysed in ice-cold modified radio immunoprecipitation assay (RIPA) buffer (50 mM Tris-HCl, pH 7.4, 150 mM NaCl, 1% Nonidet P-40, 0.25% sodium deoxycholate, 1 mM Na3VO4 and 1 mM NaF), supplemented with protease inhibitors and incubated for 30 min on ice. The supernatant obtained after centrifugation at 12,000 rpm for 30 min at 4°C constituted the total protein extract. The protein concentration was determined by the method of Bradford, using bovine serum albumin (BSA) as standard. Equal amounts of total protein extracts were used for Western blot analysis. […] Membranes were then analysed by an enhanced chemiluminescence reaction, using Super Signal West Pico kit (Pierce) according to manufacturer's instruction; signals were visualized by autoradiography.

- Ki (CDC25C): 3.1 ± 0.22 µM
Structure (SMILES): O=C(O)C1CCCCC1c1c2ccc(=O)cc-2oc2cc(O)ccc12 (stereo not shown) [Compound 7, 2-(6-hydroxy-3-oxo-3H-xanthen-9-yl)cyclohexanecarboxylic acid]
- Akt activation (pAkt) (pAkt protein levels): early reduction of Akt activation
- CDC25C protein levels (CDC25C protein levels): earlier decrease of CDC25C protein levels
- CDC25A protein levels (CDC25A protein levels): early reduction of the CDC25A protein levels up to 4 h
